Our source for the IC50, ring closure, yield of all isomers and Kd values is patent publication US20140094462A1, “SONIC HEDGEHOG MODULATORS” (priority 2009, published 2014).

In series [1] the test system is C3H10T1/2. The experiment in a line: Induction of osteogenic differentiation (modulation of osteoblast differentiation). As to conditions: Mus musculus, C3H 10T1/2, read-out: IC50 (nM) C3H10T1/2.
Source text: Using assays previously described in Dwyer et al., J. Biol. Chem. 282, (2007), 8959-68 and Nakamura et al., Biochm. […] Res. Comm., 237 (1997) 465-9, select compounds of the invention were screened for their ability to modulate osteoblast differentiation.
The conditions of series [2]: rcm bond.
For series [3], the target named is T1, ShhN protein (Homo sapiens, UniProt Q15465).
T1 construct: auto-cleavage of full length Shh into an active 20 kD N-terminal fragment (ShhN); purchased R&D Systems
As to the kind of experiment: Surface Plasmon Resonance (SPR) protein binding assay on immobilized ShhN. As to conditions: SPR, Biacore T100, ShhN immobilized on CM4 chip, 25° C., compound 0.78 μM-25 μM; read-out: KD. The method, then:
Biacore™ T100 (GE Healthcare, Uppsala, Sweden) was used to perform the experiments described herein. Sensor surface preparation and interaction analyses experiments were performed at 25° C.
Control surfaces were prepared similarly without protein derivatization and were utilized as a reference surfaces for compound binding experiments.
Zero concentration blank buffer cycles were included as negative control samples.
Data analysis was carried out using Biacore T100 evaluation software v1.1.1. […] Solvent correction was then applied as described previously.
(In SPR one partner is held on a chip, and binding of the other changes the refractive index at the surface.)

Each structure is given as a SMILES string. Read-outs that look alike come from different tables or passages of the source.

T1 sequence (Q15465 24-197 limits assumed, species assumed): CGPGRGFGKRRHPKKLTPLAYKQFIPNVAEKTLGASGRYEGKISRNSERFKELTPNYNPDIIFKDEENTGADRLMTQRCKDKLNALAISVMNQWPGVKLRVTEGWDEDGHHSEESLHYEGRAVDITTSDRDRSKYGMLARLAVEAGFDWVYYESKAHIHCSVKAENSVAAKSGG

For the molecule `O=C1CC/C=C/CCC(=O)OCC(c2ccccc2)N1` (stereo not shown) [F], the IC50 in series [1] fell in the range of 100 to 1000 nM.

Regarding `C[C@@H]1C/C=C/CCC(=O)O[C@H](c2ccccc2)CNC1=O` [Compound BP, (2R,6R,E)-6-methyl-2-phenyl-1-oxa-4-azacyclododec-8-ene-5,12-dione], the ring closure, yield of all isomers in series [2] (from C=CCCC(=O)O[C@@H](CNC(=O)[C@H](C)CC=C)c1ccccc1, toluene) came out at 79%. Further, the Kd in series [3] is over 100 µM. `C[C@@H]1C/C=C/CCC(=O)OC[C@H]2CCCN2C1=O` returned a ring closure, yield of all isomers in series [2] (from C=CCCC(=O)OC[C@H]1CCCN1C(=O)[C@H](C)CC=C, toluene, 3 steps) of 20%.

`C[C@@H]1C/C=C/CCC(=O)N[C@@H](C)COC1=O` returned a ring closure, yield of all isomers in series [2] (from C=CCCC(=O)N[C@@H](C)COC(=O)[C@H](C)CC=C, toluene, 3 steps) of 35%. Molecule `C[C@H]1C/C=C/CCC(=O)N[C@H](c2ccccc2)COC1=O` [Example BS, (3R,11S,E)-11-methyl-3-phenyl-1-oxa-4-azacyclododec-8-ene-5,12-dione] yielded a ring closure, yield of all isomers in series [2] (from C=CCCC(=O)N[C@@H](COC(=O)[C@@H](C)CC=C)c1ccccc1, toluene) of 44%. For the same molecule, in series [3], the Kd was over 100 µM. In the case of `C[C@@H]1C/C=C/C[C@H](C)C(=O)N[C@H](c2ccccn2)COC1=O`, in series [2] (from C=CC[C@@H](C)C(=O)OC[C@H](NC(=O)[C@@H](C)CC=C)c1ccccn1, toluene), the ring closure, yield of all isomers amounted to 89%. In the case of `C[C@@H]1C/C=C/CCC(=O)O[C@H](c2ccccc2)[C@H](C)N(C)C1=O` [Example BC, (2R,3S,6R,E)-3,4,6-trimethyl-2-phenyl-1-oxa-4-azacyclododec-8-ene-5,12-dione], the ring closure, yield of all isomers in series [2] (from C=CCCC(=O)O[C@H](c1ccccc1)[C@H](C)N(C)C(=O)[C@H](C)CC=C, toluene) was determined as 10%. Moreover, the equilibrium dissociation constant (Kd) in series [3] was in the range of 1 to 100 µM.

`C[C@@H]1C/C=C/CC(C)(C)C(=O)N[C@H](c2ccccc2)COC1=O` [Example AY, (3R,11R,E)-6,6,11-trimethyl-3-phenyl-1-oxa-4-azacyclododec-8-ene-5,12-dione] had a ring closure, yield of all isomers in series [2] (from C=CC[C@@H](C)C(=O)OC[C@H](NC(=O)C(C)(C)CC=C)c1ccccc1, toluene) of 81%. Further, the equilibrium dissociation constant (Kd) in series [3] was in the range of 1 to 100 µM. For `CC1=CC[C@@H](C)C(=O)OC[C@@H](c2ccccc2)NC(=O)CC1`, the ring closure, yield of all isomers in series [2] (from C=CC[C@@H](C)C(=O)OC[C@H](NC(=O)CCC(=C)C)c1ccccc1, toluene, 3 steps) worked out at 26%. Molecule `C[C@@H]1COC(=O)C(C)(C)C/C=C/CCC(=O)N1` came in with a ring closure, yield of all isomers in series [2] (from C=CCCC(=O)N[C@H](C)COC(=O)C(C)(C)CC=C, toluene, 3 steps) of 8%. `CC1C/C=C/CCC(=O)N[C@H](c2ccccc2)COC1` (stereo partly drawn) [(3R,E)-11-methyl-3-phenyl-1-oxa-4-azacyclododec-8-en-5-one]: in series [2] (from C=CCCC(=O)N[C@@H](COCC(C)CC=C)c1ccccc1, toluene, 2 steps), the ring closure, yield of all isomers is 0.5%. As to `C[C@@H]1C/C=C/CCC(=O)N[C@H](c2ccccc2)CN(C)C1=O`, the ring closure, yield of all isomers in series [2] (from C=CCCC(=O)N[C@@H](CN(C)C(=O)[C@H](C)CC=C)c1ccccc1, toluene, 25.0 °C, 16.0 h) turned out to be 68%. In series [2] (from C=CCCC(=O)N[C@H](COC(=O)[C@@H](C)CC=C)c1ccccc1, toluene, 25.0 °C, 16.0 h), `C[C@H]1C/C=C/CCC(=O)N[C@@H](c2ccccc2)COC1=O` showed a ring closure, yield of all isomers of 74%. In turn, `C[C@@H]1C/C=C/CCC(=O)OC[C@@H]2CCCN2C1=O` [Example BD, (9R,14aS,E)-9-methyl-4,5,8,9,12,13,14,14a-octahydro-1H-pyrrolo[2,1-c][1,4]oxaazacyclododecine-3,10-dione] had a ring closure, yield of all isomers in series [2] (from C=CCCC(=O)OC[C@@H]1CCCN1C(=O)[C@H](C)CC=C, toluene) of 42%. Besides, the dissociation constant Kd in series [3] fell in the range of 1 to 100 µM. In the case of `C[C@@H]1C/C=C/CCC(=O)N[C@H]2CCC[C@H]2OC1=O`, the ring closure, yield of all isomers in series [2] (from C=CCCC(=O)N[C@H]1CCC[C@H]1OC(=O)[C@H](C)CC=C, toluene) turned out to be 32.4%.

On to `O=C1CC/C=C/C[C@@H](Cc2ccc(Cl)cc2)C(=O)NC[C@@H](c2ccccc2)O1` [Example BQ, (2R,6S,E)-6-(4-chlorobenzyl)-2-phenyl-1-oxa-4-azacyclododec-8-ene-5,12-dione], for which, in series [2] (from C=CCCC(=O)O[C@@H](CNC(=O)[C@@H](CC=C)Cc1ccc(Cl)cc1)c1ccccc1, toluene), the ring closure, yield of all isomers turned out to be 51%. For the same molecule, in series [3], the Kd was under 0.1 µM. In the case of `C[C@@H]1[C@@H](c2ccccc2)OC(=O)CC/C=C/C[C@@H](NC(=O)OC(C)(C)C)C(=O)N1C`, the ring closure, yield of all isomers in series [2] (from C=CCCC(=O)O[C@H](c1ccccc1)[C@@H](C)N(C)C(=O)[C@@H](CC=C)NC(=O)OC(C)(C)C, toluene) stood at 60%. The molecule `O=C1CCC=CCN(Cc2ccc(Cl)cc2)C(=O)OC[C@@H](c2ccccc2)N1` yielded a ring closure, yield of all isomers in series [2] (from C=CCCC(=O)N[C@@H](COC(=O)N(CC=C)Cc1ccc(Cl)cc1)c1ccccc1, toluene) of 25%. As to `C[C@@H]1C/C=C/C[C@@H](NC(=O)OCC2c3ccccc3-c3ccccc32)C(=O)N[C@H](c2ccccc2)COC1=O`, the ring closure, yield of all isomers in series [2] (from C=CC[C@@H](C)C(=O)OC[C@H](NC(=O)[C@@H](CC=C)NC(=O)OCC1c2ccccc2-c2ccccc21)c1ccccc1, DCM) was found to be 75%.

With `C[C@@H]1C/C=C/C[C@H](C)C(=O)N[C@H](c2cccs2)COC1=O`, in series [2] (from C=CC[C@@H](C)C(=O)OC[C@H](NC(=O)[C@@H](C)CC=C)c1cccs1, toluene), the ring closure, yield of all isomers was found to be 74.7%.

In the case of `CN1C/C=C/CCC(=O)N[C@H](c2ccccc2)COC1=O`, the ring closure, yield of all isomers in series [2] (from C=CCCC(=O)N[C@@H](COC(=O)N(C)CC=C)c1ccccc1, DCM) turned out to be 45%. Regarding `C[C@H]1[C@@H](c2ccccc2)OC(=O)CC/C=C/C[C@@H](NC(=O)OCC2c3ccccc3-c3ccccc32)C(=O)N1C`, the ring closure, yield of all isomers in series [2] (from C=CCCC(=O)O[C@H](c1ccccc1)[C@H](C)N(C)C(=O)[C@@H](CC=C)NC(=O)OCC1c2ccccc2-c2ccccc21, toluene) was 16%.

A word on the Kd: it is the concentration at which binding is half-saturated.
